Format in all cases: physicochemical
The nature of data set [1]: Approximate (relative) solubility of active ingredients in organic solvents at ambient temperature. The conditions noted are these: 0.2 g of Compound A mixed with 1.38 g of cyclohexanone. The protocol:
The approximate solubility of Compound A was determined by mixing a known mass of the active ingredient with an increasing mass of each solvent at ambient temperature. […] The solubility of Compound A in the solvents used in this screening procedure was generally classified within the following concentration ranges: […]

The nature of data set [2]: Solubility of Compound A and prothioconazole in benzyl acetate/AMD810 blends at 10° C. (HPLC). The conditions noted are these: both actives saturated. The protocol:
A study of the Compound A and prothioconazole solubility in blends of benzyl acetate/AMD810 was conducted. To each solvent blend both actives were added until each was saturated and the resulting mixtures were then stored at 10° C. until equilibrium was obtained. Aliquots of the supernatant layer were taken from each sample, filtered (0.45 μm mesh) and analyzed by HPLC to determine the solution concentration of each active in the blends.

The nature of data set [3]: Accelerated storage stability, 54° C. for 2 weeks (HPLC). The conditions noted are these: 2 weeks at 54° C. The protocol: Sample 1 was stored at 54° C. for 2 weeks in a closed container.
Sample 6 was stored at 54° C. for 2 weeks in a closed container.
Sample 7 was stored at 54° C. for 2 weeks in a closed container.

As for `COc1ccnc(C(=O)N[C@H]2COC(=O)[C@H](Cc3ccccc3)[C@@H](OC(=O)C(C)C)[C@H](C)OC2=O)c1OCOC(=O)C(C)C` [Compound A, propanoic acid, 2-methyl-, [[4-methoxy-2-[[[(3S,7R,8R,9S)-9-methyl-8-(2-methyl-1-oxopropoxy)-2,6-dioxo-7-(phenylmethyl)-1,5-dioxonan-3-yl]amino]carbonyl]-3-pyridinyl]oxy]methyl ester], the “Compound A content of clear solution in cyclohexanone” value in data set [1] came to 12.6 % w/w. For the same molecule, the “Compound A Solubility at 10° C.” value in data set [2] (benzyl acetate 0 wt % in benzyl acetate/AMD810 blend) was determined as 3.3 % w/w; in data set [2] (benzyl acetate 20 wt % in benzyl acetate/AMD810 blend), 4.3 % w/w; in data set [2] (benzyl acetate 40 wt % in benzyl acetate/AMD810 blend), 6.5 % w/w; in data set [2] (benzyl acetate 60 wt % in benzyl acetate/AMD810 blend) it was 11.0 % w/w; in data set [2] (benzyl acetate 80 wt % in benzyl acetate/AMD810 blend), 12.0 % w/w. In addition, the “Compound A after Storage (% retention)” value is reported as 49^ % retention in data set [3] (composition wt %: Compound A 3.4, AMD 810 96.0, third solvent none); 85^ % retention in data set [3] (composition wt %: Compound A 4.9, benzyl acetate 94.1, third solvent none); 96^ % retention in data set [3] (composition wt %: Compound A 12.0, cyclohexanone 85.7); 98^ % retention in data set [3] (wt %: Compound A 4.9, pyraclostrobin 6.3, benzyl acetate 41.2, AMD 810 22.2, cyclohexanone 9.8); 95^ % retention in data set [3] (wt %: Compound A 5.0, pyraclostrobin 6.4, benzyl acetate 40.9, AMD 810 22.0, 2-ethyl hexanol 10.0); 97^ % retention in data set [3] (wt %: Compound A 7.7, pyraclostrobin 9.8, benzyl acetate 37.1, AMD 810 20.0, cyclohexanone 9.6). Also, in data set [3] (wt %: Compound A 7.8, pyraclostrobin 9.9, benzyl acetate 36.7, AMD 810 19.8, 2-ethyl hexanol 9.7), the “Compound A after Storage (% retention)” value is on record as 97^ % retention.

Source of the values: US20160183527A1, “FUNGICIDAL COMPOSITIONS” (Dow AgroSciences LLC, priority 2014, published 2016).
